Assay results published in patent US20090023773A1, “COMPOSITIONS AND METHODS FOR MODULATING GATED ION CHANNELS” (PainCeptor Pharma Corporation, priority 2007, published 2009).

Columns and labels:
[1] = target: T1, recombinant homomeric hASIC1a channels (Homo sapiens, UniProt P78348); assay: Two-electrode voltage clamp in Xenopus laevis oocytes expressing gated ion channels (Example 4); format: cell-based
T1 construct: expressed in transfected cells; host or cells: Xenopus laevis oocytes (nuclear microinjection of expression vector such as pcDNA3)
T1 sequence (P78348 1-528): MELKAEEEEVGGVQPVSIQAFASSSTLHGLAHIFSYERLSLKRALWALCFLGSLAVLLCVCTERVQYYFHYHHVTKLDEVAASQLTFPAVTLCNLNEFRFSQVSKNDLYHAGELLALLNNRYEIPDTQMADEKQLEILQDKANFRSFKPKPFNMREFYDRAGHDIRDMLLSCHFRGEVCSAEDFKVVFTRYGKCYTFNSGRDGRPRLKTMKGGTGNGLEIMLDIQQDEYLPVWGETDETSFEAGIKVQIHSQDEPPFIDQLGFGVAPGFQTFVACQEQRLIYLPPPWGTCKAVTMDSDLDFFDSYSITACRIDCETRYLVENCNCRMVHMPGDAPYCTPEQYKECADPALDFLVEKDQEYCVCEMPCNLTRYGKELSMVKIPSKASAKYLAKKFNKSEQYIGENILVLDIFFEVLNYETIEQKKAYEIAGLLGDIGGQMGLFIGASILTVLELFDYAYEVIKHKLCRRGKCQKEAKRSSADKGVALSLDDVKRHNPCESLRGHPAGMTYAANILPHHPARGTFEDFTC

[2] = target: T2, hASIC2a/3 steady state (window) current (Homo sapiens, UniProt Q16515+Q9UHC3); assay: ASIC2a/3 assay, automated two-electrode voltage clamp in oocytes microinjected with hASIC2a and hASIC3 (Example 2); format: cell-based; settings: 50 μM, perfusion at pH 6.5; FIG. 8
T2 construct: expressed in transfected cells; host or cells: Xenopus laevis oocytes, cRNA microinjection, 1:1 mass ratio
T2 sequence (Q16515 1-512): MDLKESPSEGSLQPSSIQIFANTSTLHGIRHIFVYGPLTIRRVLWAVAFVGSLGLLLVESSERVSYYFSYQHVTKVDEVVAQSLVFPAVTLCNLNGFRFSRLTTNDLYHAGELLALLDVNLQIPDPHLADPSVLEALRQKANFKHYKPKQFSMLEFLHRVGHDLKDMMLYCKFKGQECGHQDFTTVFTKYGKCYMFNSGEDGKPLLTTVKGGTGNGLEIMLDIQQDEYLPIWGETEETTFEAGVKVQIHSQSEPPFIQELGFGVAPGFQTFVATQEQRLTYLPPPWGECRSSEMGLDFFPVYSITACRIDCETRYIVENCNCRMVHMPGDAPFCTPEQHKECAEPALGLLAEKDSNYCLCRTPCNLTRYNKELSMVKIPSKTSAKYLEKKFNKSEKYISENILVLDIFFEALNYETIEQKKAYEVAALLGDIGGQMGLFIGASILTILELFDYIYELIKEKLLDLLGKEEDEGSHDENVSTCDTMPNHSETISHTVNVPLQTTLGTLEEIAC
T2 sequence (Q9UHC3 1-531): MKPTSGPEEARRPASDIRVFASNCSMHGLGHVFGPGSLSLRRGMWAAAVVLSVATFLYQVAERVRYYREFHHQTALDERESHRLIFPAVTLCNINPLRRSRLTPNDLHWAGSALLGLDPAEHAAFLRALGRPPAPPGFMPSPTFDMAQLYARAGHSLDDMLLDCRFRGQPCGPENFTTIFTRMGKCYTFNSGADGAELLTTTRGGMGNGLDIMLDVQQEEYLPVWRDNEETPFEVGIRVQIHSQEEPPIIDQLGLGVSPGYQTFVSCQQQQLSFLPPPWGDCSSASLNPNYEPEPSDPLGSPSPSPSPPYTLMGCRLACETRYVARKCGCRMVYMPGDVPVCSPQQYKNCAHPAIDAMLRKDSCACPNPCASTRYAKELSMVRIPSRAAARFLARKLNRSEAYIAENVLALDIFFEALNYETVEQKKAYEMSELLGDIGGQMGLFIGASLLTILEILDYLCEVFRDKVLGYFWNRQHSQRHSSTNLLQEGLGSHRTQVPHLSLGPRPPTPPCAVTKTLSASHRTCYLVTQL
Experimental: The ASIC2a/3 assay involves methods and procedures commonly in use and have been extensively described in the literature.
Briefly, a mature female frog is placed on its back after anesthesia, 20 min in 0.1% (w/v) Tricaine (Sigma), and incision is made on the lower abdomen through the skin, muscle and into the peritoneum. Lobes of ovaries are pulled out with forceps, cut and placed in a solution of Ca^2+-free Barth's with 1% (w/v) collagenase Type I (Sigma) added, for 90 minutes. The dissociated eggs are then washed with complete Barth's, supplementd with […] Gentamycin.
Plasmids containing cDNA for ASIC2a+ASIC3 are linearized and used for cRNA synthesis. The synthesis is done according to the protocol insert of the synthesis kit (e.g. Message Machine, Ambion). The final resuspension of the cRNA is made to provide a concentration of 1 μg/μL. The cDNA's for hASIC2a and hASIC3 are mixed with a 1:1 mass ratio and injected at […] per oocyte. Micro-injected oocytes start expressing hASIC2a3 specific current after 24 h.
The oocytes micro-injected with hASIC2a and hASIC3 cRNA's are placed in the recording chambers of the automated rig and then impaled with the voltage and current micro-electrodes. […] The voltage and current for each oocyte is recorded in one pass during both applications for later analysis. […]

Row | IC50 ([1]; Table 1, generated using oocytes as in Example 4) | reduction in the current evoked by a mild pH stimulation ([1]; acid-induced inward currents in oocytes injected with hASIC1a cDNA, FIGS. 2A-2C) | inhibition of the ASIC 2a/3 current [2] | SMILES
1 | 0.1 to 10 µM | clear dose-dependent reduction | – | Cc1cc(OC2CCN(Cc3ccccc3)CC2)c2cc(O)ccc2n1 [Compound 13, 4-(1-benzylpiperidin-4-yloxy)-2-methylquinolin-6-ol]
2 | – | – | specific inhibition | Cc1ccc(-c2nc(Nc3ccc(C(=O)O)cc3)c3cc(Cl)ccc3n2)cc1 [Compound 124]
